Results from patent US20070172957A1, “Methods of identifying anti-inflammatory macrolides” (TAISHO PHARMACEUTICAL CO., LTD., priority 2004, published 2007).

System: genes predictive for the anti-inflammatory macrolide effect
Assay: Genes statistically predictive of Clari response: differentially expressed with Clari but not the inactive macrolides MAA or Josa (Appendix E)
Assay type: cell-based
Conditions: pooled group mean
Source text: In the case of the above-mentioned (i) related to arachidonic acid biosynthesis, specifically, methods of the embodiment involve assaying whether a test macrolide alters biosynthesis of arachidonic acid, alters the expression or activities of enzymes involved in the biosynthesis or activation of arachidonic acid (e.g., arachidonic acid CoA synthetase, delta-6 desaturase, fatty acid elongase, and delta-5 desaturase, AA-related genes in Tables 2 and 3), or alters the expression of genes identified as predictive for the anti-inflammatory macrolide effect (Appendix E). Assays in which arachidonic acid or gene expression or enzymatic activity is detected can be carried out after contacting a cell with a test macrolide. Any cell line that secretes prostaglandin or produces arachidonic acid can be used. Epithelial and macrophages lines (e.g., A549 or THP-1) are suitable for this purpose; other cell lines can be identified by carrying out assays such as those described in the specific Examples, below. Alternatively, screening assays can be carried out after adding a test macrolide to an in vitro cell system (e.g., a cellular extract or liver microsome preparation) or an in vitro enzyme assay system.

## CC[C@H]1OC(=O)[C@H](C)[C@@H](O[C@H]2C[C@@](C)(OC)[C@@H](O)[C@H](C)O2)[C@H](C)[C@@H](O[C@@H]2O[C@H](C)C[C@H](N(C)C)[C@H]2O)[C@](C)(O)C[C@@H](C)/C(=N\OCOCCOC)[C@H](C)[C@@H](O)[C@]1(C)O [roxithromycin]
SpotID 46633
  mean group, FLJ20699: 0.81
SpotID 46648
  mean group, ARHGAP1: 0.96
SpotID 46679
  mean group, KIAA1172: 0.92
SpotID 46825
  mean group, MKNK2: 1.12
SpotID 46843
  mean group, ARHGDIA: 0.93
SpotID 46896
  mean group, CDIPT: 1.01
SpotID 46923
  mean group, PACE: 1.09
SpotID 46935
  mean group, METAP2: 0.89
SpotID 46988
  mean group, EREG: 0.85
SpotID 47034
  mean group, C2orf3: 0.90
SpotID 47241
  mean group, NUBP1: 0.95
SpotID 47314
  mean group, EPOR: 1.14
SpotID 47352
  mean group, ADAM11: 1.10
SpotID 47366
  mean group, P4HB: 1.18
SpotID 47415
  mean group, CETN2: 1.18
SpotID 47418
  mean group, SNK: 0.82
SpotID 47432
  mean group, GCS1: 1.02
SpotID 47439
  mean group, DCTN1: 0.95
SpotID 47446
  mean group, RANBP1: 0.89
SpotID 47504
  mean group, MSH3: 0.99
SpotID 47522
  mean group, SERPINA1: 0.95
SpotID 47622
  mean group, TRAP1: 0.94
SpotID 47679
  mean group, NR4A2: 1.14
SpotID 47694
  mean group, HSPA9B: 0.95
SpotID 47754
  mean group, NBS1: 0.97
SpotID 47776
  mean group, POLA: 0.89
SpotID 47802
  mean group, GOT1: 0.94
SpotID 47811
  mean group, ENTPD6: 1.06
SpotID 47846
  mean group, SSI-1: 0.93
SpotID 47850
  mean group, PRLR: 0.99
SpotID 47935
  mean group, P4HA1: 1.18
SpotID 47950
  mean group, DNASE1L1: 1.03
SpotID 47973
  mean group, USF2: 1.05
SpotID 47987
  mean group, THBS1: 0.71
SpotID 47988
  mean group, RPN2: 1.02
SpotID 48004
  mean group, CUTL1: 1.02
SpotID 48026
  mean group, SRF: 1.03
SpotID 48137
  mean group, FRDA: 0.90
SpotID 48149
  mean group, SFRS7: 0.88
SpotID 48160
  mean group, ZAP3: 0.95
SpotID 48233
  mean group, MAPK12: 1.03
SpotID 48266
  mean group, GRB2: 1.04
SpotID 48301
  mean group, GCN5L1: 1.01
SpotID 48345
  mean group, CCT3: 1.03
SpotID 48365
  mean group, MAPK9: 0.94
SpotID 48411
  mean group, MGEA5: 1.13
SpotID 48415
  mean group, SERPINB1: 1.28
SpotID 48456
  mean group, DDC: 0.97
SpotID 48461
  mean group, BARD1: 0.86
SpotID 48486 (gene symbol not given)
  mean group, SpotID 48486: 0.94
SpotID 48500
  mean group, RPL13A: 0.92
SpotID 48521
  mean group, ARAF1: 0.98
SpotID 48530
  mean group, APLP2: 1.10
SpotID 48557
  mean group, NFE2L1: 1.06
SpotID 48620
  mean group, XBP1: 1.10
SpotID 48646
  mean group, SDCBP: 1.08
SpotID 48654
  mean group, FECH: 0.98
SpotID 48693
  mean group, HSPBP1: 0.91
SpotID 48707
  mean group, P4HA1: 1.18
SpotID 48717
  mean group, PPP3CB: 0.95
SpotID 48725
  mean group, IKKE: 0.94
SpotID 48732
  mean group, RALA: 1.06
SpotID 48747
  mean group, MAFB: 0.93
SpotID 48804
  mean group, KIAA0217: 0.88
SpotID 48921
  mean group, ITGAE: 0.97
SpotID 49006
  mean group, PRSS25: 1.14
SpotID 49007
  mean group, TM9SF2: 1.18
SpotID 49028
  mean group, BNIP3L: 1.20
SpotID 49117
  mean group, SERPINB1: 0.88
SpotID 49155
  mean group, ARTS-1: 0.86
SpotID 49169
  mean group, RRS1: 0.93
SpotID 49233
  mean group, APOE: 1.01
SpotID 49272
  mean group, TNFRSF10B: 1.08
SpotID 49314
  mean group, PPIB: 1.16
SpotID 49318
  mean group, YWHAH: 0.97
SpotID 49360
  mean group, TEB4: 0.94
SpotID 49374 (gene symbol not given)
  mean group, SpotID 49374: 1.03
SpotID 49435
  mean group, TRRAP: 0.92
SpotID 49446
  mean group, SRC: 1.14
SpotID 49490
  mean group, VTN: 0.94
SpotID 49514
  mean group, UBC: 1.09
SpotID 49524
  mean group, AP1G2: 0.92
SpotID 49577
  mean group, LOC54543: 1.02
SpotID 49606
  mean group, CSTF3: 1.07
SpotID 49618
  mean group, CLN2: 1.12
SpotID 49673
  mean group, BTN3A2: 1.11
SpotID 49679
  mean group, SERPINF1: 1.09
SpotID 49737
  mean group, CHAF1B: 0.88
SpotID 49767
  mean group, AD022: 1.10
SpotID 49787
  mean group, CYC1: 0.94
SpotID 49800
  mean group, AD022: 1.09
SpotID 49915
  mean group, ATP2B4: 1.06
SpotID 49947
  mean group, RFC1: 0.93
SpotID 50022
  mean group, HIF1A: 0.93
SpotID 50050
  mean group, NDUFA2: 1.02
SpotID 50079
  mean group, SCOP: 1.04
SpotID 50099
  mean group, CNOT3: 0.86
SpotID 50267
  mean group, IL10RB: 1.08
SpotID 50342
  mean group, IKKE: 1.08
SpotID 50349
  mean group, LOC51295: 0.84
SpotID 50351
  mean group, CFL1: 1.00
SpotID 50421
  mean group, GOCAP1: 1.10
SpotID 50511
  mean group, MGP: 0.98
SpotID 50513
  mean group, ARHC: 1.00
SpotID 50584
  mean group, BN51T: 1.07
SpotID 50590
  mean group, CKS2: 0.89
SpotID 50591 (gene symbol not given)
  mean group, SpotID 50591: 1.13
SpotID 50601
  mean group, SRP19: 1.06
SpotID 50645
  mean group, BET1: 1.01
SpotID 50736
  mean group, PRKDC: 0.92
SpotID 50738
  mean group, AD022: 1.10
